In PubChem BioAssay (NCI):
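Cultured in 96-well plates, cells were exposed to test compound for 48 hours across five concentrations. GI50: concentration for 50% inhibition of growth. TGI: total growth inhibition.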

Tests used:
Experiment in all cases: inhibition of tumour cell growth, NCI panel, 48 h
A498 renal = tested on: A498 renal
ACHN renal = tested on: ACHN renal
HL-60(TB) leukemia = tested on: HL-60(TB) leukemia
KM12 colon = tested on: KM12 colon
M14 melanoma = tested on: M14 melanoma
OVCAR-5 ovarian = tested on: OVCAR-5 ovarian
RPMI-8226 leukemia = tested on: RPMI-8226 leukemia
RXF 393 renal = tested on: RXF 393 renal
SF-539 CNS = tested on: SF-539 CNS
SK-MEL-5 melanoma = tested on: SK-MEL-5 melanoma

| SMILES | TGI (A498 renal) [µM] | TGI (ACHN renal) [µM] | TGI (HL-60(TB) leukemia) [µM] | TGI (KM12 colon) [µM] | TGI (M14 melanoma) [µM] | TGI (OVCAR-5 ovarian) [µM] | TGI (RPMI-8226 leukemia) [µM] | TGI (RXF 393 renal) [µM] | TGI (SF-539 CNS) [µM] | TGI (SK-MEL-5 melanoma) [µM] | GI50 (A498 renal) [µM] | GI50 (ACHN renal) [µM] | GI50 (HL-60(TB) leukemia) [µM] | GI50 (KM12 colon) [µM] | GI50 (M14 melanoma) [µM] | GI50 (OVCAR-5 ovarian) [µM] | GI50 (RPMI-8226 leukemia) [µM] | GI50 (RXF 393 renal) [µM] | GI50 (SF-539 CNS) [µM] | GI50 (SK-MEL-5 melanoma) [µM] |
| --- | --- | --- | --- | --- | --- | --- | --- | --- | --- | --- | --- | --- | --- | --- | --- | --- | --- | --- | --- | --- |
| C/C(=N\Nc1ccccc1)c1sc(-c2nc(C)c(/C(C)=N/Nc3ccccc3)s2)nc1C | > 100 | > 32 | > 100 | > 100 | 25 | > 100 | > 100 | > 87.9 | > 37.7 | > 47.6 |  |  |  |  |  |  |  |  |  |  |
| O=C(COc1ccc(/C=C2\Oc3ccc4ccccc4c3C2=O)cc1)c1ccc([N+](=O)[O-])cc1 | > 100 | 88.2 | 16.2 | 23.4 | 40.6 | 30.7 | 5.11 | 60.5 | 28.1 | 28.9 | 41.5 | 28.3 | 2.61 | 10.9 | 12.1 | 16.4 | 1.6 | 8.55 | 13.8 | 13.2 |
| O=C1NC(=O)C(C(=O)C(=O)Nc2cc(Cl)ccc2Cl)C(=O)N1 | > 100 | > 100 | > 100 | > 100 | > 100 | > 100 | > 100 | > 100 | > 100 | > 100 |  |  |  |  |  |  |  |  |  |  |
| O=C(Nc1ccc(OS(=O)(=O)c2ccc(F)cc2)cc1)C12CC3CC(CC(C3)C1)C2 | 22.4 | > 100 | > 100 | > 100 | > 100 | > 100 | > 100 | 22.5 | > 100 | > 100 | 0.936 | 14.6 | > 29 | 1.15 | 8.12 | 26.1 | 0.403 | 3.15 | 0.75 | 4.12 |
| O=c1cc(-c2ccc(Cl)cc2)[nH]c2ccccc12 | > 100 | > 100 | > 100 | > 100 | > 100 | > 100 | > 100 | > 100 | > 100 | > 100 | 51.6 | 57.8 | 5.62 | 27.2 | 27.8 | > 100 | 46.9 | 45.9 | 52.8 | 26.7 |
| Cc1ccccc1/C=C/c1csnn1 | > 100 | > 100 | 39 | > 100 | > 100 | > 100 | 79.7 | > 100 | > 100 | > 100 |  |  |  |  |  |  |  |  |  |  |
